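48-hour exposure; five concentrations; linearly interpolated endpoints. At the GI50, growth is halved. At the TGI there is no net growth.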
Legend:
Assay in all cases: inhibition of tumour cell growth, NCI panel, 48 h
786-0 renal = test system: 786-0 renal
A498 renal = test system: A498 renal
A549 NSCLC = test system: A549 NSCLC
ACHN renal = test system: ACHN renal
BT-549 breast = test system: BT-549 breast
CAKI-1 renal = test system: CAKI-1 renal
CCRF-CEM leukemia = test system: CCRF-CEM leukemia
COLO 205 colon = test system: COLO 205 colon
DU-145 prostate = test system: DU-145 prostate
EKVX NSCLC = test system: EKVX NSCLC
HCC-2998 colon = test system: HCC-2998 colon
HCT-116 colon = test system: HCT-116 colon
HCT-15 colon = test system: HCT-15 colon
HL-60(TB) leukemia = test system: HL-60(TB) leukemia
HOP-62 NSCLC = test system: HOP-62 NSCLC
HOP-92 NSCLC = test system: HOP-92 NSCLC
HS 578T breast = test system: HS 578T breast
HT29 colon = test system: HT29 colon
IGROV1 ovarian = test system: IGROV1 ovarian
K-562 leukemia = test system: K-562 leukemia
KM12 colon = test system: KM12 colon
LOX IMVI melanoma = test system: LOX IMVI melanoma
M14 melanoma = test system: M14 melanoma
MALME-3M melanoma = test system: MALME-3M melanoma
MCF7 breast = test system: MCF7 breast
MDA-MB-231 breast = test system: MDA-MB-231 breast
MDA-MB-435 = test system: MDA-MB-435
MOLT-4 leukemia = test system: MOLT-4 leukemia
NCI-H226 lung = test system: NCI-H226 lung
NCI-H23 lung = test system: NCI-H23 lung
NCI-H460 lung = test system: NCI-H460 lung
NCI-H522 lung = test system: NCI-H522 lung
NCI/ADR-RES ovarian = test system: NCI/ADR-RES ovarian
OVCAR-3 ovarian = test system: OVCAR-3 ovarian
OVCAR-4 ovarian = test system: OVCAR-4 ovarian
OVCAR-5 ovarian = test system: OVCAR-5 ovarian
OVCAR-8 ovarian = test system: OVCAR-8 ovarian
PC-3 prostate = test system: PC-3 prostate
RPMI-8226 leukemia = test system: RPMI-8226 leukemia
RXF 393 renal = test system: RXF 393 renal
SF-268 CNS = test system: SF-268 CNS
SF-295 CNS = test system: SF-295 CNS
SF-539 CNS = test system: SF-539 CNS
SK-MEL-2 melanoma = test system: SK-MEL-2 melanoma
SK-MEL-28 melanoma = test system: SK-MEL-28 melanoma
SK-MEL-5 melanoma = test system: SK-MEL-5 melanoma
SK-OV-3 ovarian = test system: SK-OV-3 ovarian
SN12C renal = test system: SN12C renal
SNB-19 CNS = test system: SNB-19 CNS
SNB-75 CNS = test system: SNB-75 CNS
SR leukemia = test system: SR leukemia
SW-620 colon = test system: SW-620 colon
T-47D breast = test system: T-47D breast
TK-10 renal = test system: TK-10 renal
U251 CNS = test system: U251 CNS
UACC-257 melanoma = test system: UACC-257 melanoma
UACC-62 melanoma = test system: UACC-62 melanoma
UO-31 renal = test system: UO-31 renal

With `O=c1cc(-c2cccc3c2Sc2ccccc2S3)oc(N2CCOCC2)c1` the GI50 (786-0 renal) was 4.05 µM, the TGI (786-0 renal) was 18.3 µM and the GI50 (A498 renal) was 0.323 µM. The TGI (A498 renal) was 3.79 µM, the GI50 (A549 NSCLC) was 10.4 µM and the TGI (A549 NSCLC) was 26.7 µM. It also gave a GI50 (ACHN renal) of 11.4 µM, a TGI (ACHN renal) of 26.5 µM and a GI50 (BT-549 breast) of 4.25 µM. It also gave a TGI (BT-549 breast) of 17 µM, a GI50 (CAKI-1 renal) of 5.3 µM and a TGI (CAKI-1 renal) of 18.9 µM. The GI50 (CCRF-CEM leukemia) was 21.1 µM, the TGI (CCRF-CEM leukemia) was > 55.8 µM and the GI50 (COLO 205 colon) was 11.5 µM. For the same compound, the TGI (COLO 205 colon) was 26.3 µM, the GI50 (DU-145 prostate) was 8.19 µM and the TGI (DU-145 prostate) was 20.5 µM. For the same compound, the GI50 (EKVX NSCLC) was 10.2 µM, the TGI (EKVX NSCLC) was 25 µM and the GI50 (HCC-2998 colon) was 11.6 µM. For the same compound, the TGI (HCC-2998 colon) was 25.8 µM, the GI50 (HCT-116 colon) was 9.55 µM and the TGI (HCT-116 colon) was 22.6 µM. The GI50 (HCT-15 colon) was 8.68 µM, the TGI (HCT-15 colon) was 24.3 µM and the GI50 (HL-60(TB) leukemia) was 11.6 µM. The TGI (HL-60(TB) leukemia) was 32.3 µM, the GI50 (HOP-62 NSCLC) was 10.9 µM and the TGI (HOP-62 NSCLC) was 23 µM. It also gave a GI50 (HOP-92 NSCLC) of 6.91 µM, a TGI (HOP-92 NSCLC) of 21.9 µM and a GI50 (HS 578T breast) of 3.08 µM. It also gave a TGI (HS 578T breast) of 19.5 µM, a GI50 (HT29 colon) of 8.82 µM and a TGI (HT29 colon) of 23.5 µM. It also gave a GI50 (IGROV1 ovarian) of 4.08 µM, a TGI (IGROV1 ovarian) of 17.7 µM and a GI50 (K-562 leukemia) of 5.98 µM. The TGI (K-562 leukemia) was 30.9 µM, the GI50 (KM12 colon) was 8.04 µM and the TGI (KM12 colon) was 21.4 µM. It also gave a GI50 (LOX IMVI melanoma) of 11.4 µM, a TGI (LOX IMVI melanoma) of 37.4 µM and a GI50 (M14 melanoma) of 11.1 µM. For the same compound, the TGI (M14 melanoma) was 24.3 µM, the GI50 (MALME-3M melanoma) was 8.81 µM and the TGI (MALME-3M melanoma) was 24.4 µM. The GI50 (MCF7 breast) was 5.94 µM, the TGI (MCF7 breast) was 22.4 µM and the GI50 (MDA-MB-231 breast) was 11.8 µM. The TGI (MDA-MB-231 breast) was 29.5 µM, the GI50 (MDA-MB-435) was 3.54 µM and the TGI (MDA-MB-435) was 13.5 µM. The GI50 (MOLT-4 leukemia) was 7.34 µM, the TGI (MOLT-4 leukemia) was 25.5 µM and the GI50 (NCI-H226 lung) was 10.8 µM. The TGI (NCI-H226 lung) was 34.3 µM, the GI50 (NCI-H23 lung) was 15.5 µM and the TGI (NCI-H23 lung) was 36.9 µM. The GI50 (NCI-H460 lung) was 12.7 µM, the TGI (NCI-H460 lung) was 31.2 µM and the GI50 (NCI-H522 lung) was 8.01 µM. The TGI (NCI-H522 lung) was 22.6 µM, the GI50 (NCI/ADR-RES ovarian) was 12.8 µM and the TGI (NCI/ADR-RES ovarian) was 42.9 µM. The GI50 (OVCAR-3 ovarian) was 10.1 µM, the TGI (OVCAR-3 ovarian) was 21.9 µM and the GI50 (OVCAR-4 ovarian) was 11.2 µM. It also gave a TGI (OVCAR-4 ovarian) of 31.9 µM, a GI50 (OVCAR-5 ovarian) of 13.5 µM and a TGI (OVCAR-5 ovarian) of 28.3 µM. For the same compound, the GI50 (OVCAR-8 ovarian) was 12.9 µM, the TGI (OVCAR-8 ovarian) was 45.7 µM and the GI50 (PC-3 prostate) was 6.26 µM. For the same compound, the TGI (PC-3 prostate) was 20.9 µM, the GI50 (RPMI-8226 leukemia) was 9.83 µM and the TGI (RPMI-8226 leukemia) was 43.4 µM. The GI50 (RXF 393 renal) was 1.76 µM, the TGI (RXF 393 renal) was 8.05 µM and the GI50 (SF-268 CNS) was 7.76 µM. The TGI (SF-268 CNS) was 24.2 µM, the GI50 (SF-295 CNS) was 11.5 µM and the TGI (SF-295 CNS) was 24.9 µM. It also gave a GI50 (SF-539 CNS) of 11.6 µM, a TGI (SF-539 CNS) of 25.1 µM and a GI50 (SK-MEL-2 melanoma) of 5.71 µM. The TGI (SK-MEL-2 melanoma) was 19.3 µM, the GI50 (SK-MEL-28 melanoma) was 11.1 µM and the TGI (SK-MEL-28 melanoma) was 24.1 µM. It also gave a GI50 (SK-MEL-5 melanoma) of 8.53 µM, a TGI (SK-MEL-5 melanoma) of 22 µM and a GI50 (SK-OV-3 ovarian) of 13.4 µM. It also gave a TGI (SK-OV-3 ovarian) of 27.3 µM, a GI50 (SN12C renal) of 6.17 µM and a TGI (SN12C renal) of 21.8 µM. The GI50 (SNB-19 CNS) was 13.9 µM, the TGI (SNB-19 CNS) was 33.6 µM and the GI50 (SNB-75 CNS) was 4.97 µM. The TGI (SNB-75 CNS) was 19.9 µM, the GI50 (SR leukemia) was 4.21 µM and the TGI (SR leukemia) was 27.3 µM. It also gave a GI50 (SW-620 colon) of 12.3 µM, a TGI (SW-620 colon) of 26.8 µM and a GI50 (T-47D breast) of 3.69 µM. It also gave a TGI (T-47D breast) of 18.2 µM, a GI50 (TK-10 renal) of 12.2 µM and a TGI (TK-10 renal) of 25 µM. For the same compound, the GI50 (U251 CNS) was 8.94 µM, the TGI (U251 CNS) was 21.7 µM and the GI50 (UACC-257 melanoma) was 13.9 µM. The TGI (UACC-257 melanoma) was 27.1 µM, the GI50 (UACC-62 melanoma) was 6.55 µM and the TGI (UACC-62 melanoma) was 22.1 µM. It also gave a GI50 (UO-31 renal) of 1.79 µM and a TGI (UO-31 renal) of 15.8 µM.

Source: PubChem BioAssay (NCI)
